The record followed here is US8901129B2, “Methods of facilitating neural cell survival using GDNF family ligand (GFL) mimetics or RET signaling pathway activators” (GeneCode AS, priority 2009, dated 2014).

For series [1], the system named is Rat dopaminergic neurons. In words: Dopaminergic neuron survival with MPP+ intoxication. It counts as cell-based. The following applies: MPP+ 16 μM, 48 hours. How it is done:
Rat dopaminergic neurons were cultured as described by Schinelli et al., 1988. Briefly pregnant female rats of 15 days gestation were killed by cervical dislocation (Rats Wistar; Janvier) and the fetuses removed from the uterus. The embryonic midbrains were removed and placed in ice-cold medium of Leibovitz (L15; Invitrogen) containing 1% of Penicillin-Streptomycin (PS; Invitrogen) and 1% of bovine serum albumin (BSA; Sigma). Only the ventral portions of the mesencephalic flexure were used for the cell preparations as this is the region of the developing brain rich in dopaminergic neurons.
The midbrains were dissociated by trypsinisation for 20 min at 37° C. (10% of trypsin EDTA 10×; Invitrogen) diluted in PBS without calcium and magnesium. The reaction was stopped by the addition of Dulbecco's modified Eagle's medium (DMEM; Invitrogen) containing DNAase I grade II (0.1 mg/ml; Roche Diagnostic;) and 10% of fetal calf serum (FCS; Invitrogen). Cells were then mechanically dissociated by 3 passages through a 10 ml pipette. Cells were then centrifuged at 180×g for 10 min at room temperature on a layer of BSA (3.5%) in L15 medium. The supernatant was discarded and the cells of pellet were re-suspended in a defined culture medium consisting of Neurobasal (Invitrogen) supplemented with B27 (2%; Invitrogen), L-glutamine (0.2 mM; Invitrogen) and 1% of PS solution. Viable cells were counted in a Neubauer cytometer using the trypan blue exclusion test.
The cells were seeded at a density of 69 000 cells/well in 96 well-plates (wells were pre-coated with poly-L-lysine (10 μg/ml; Sigma)) and were cultured at 37° C. in a humidified air (95%)/CO2 (5%) atmosphere. Half of the medium was changed every 2 days with fresh medium. In these conditions, after 5 days of culture, astrocytes were present in the culture and release growth factor allowing neurons differentiation. Three to five percent of the neuronal cell population were dopaminergic neurons.
On day 6, the medium was removed and fresh medium was added with or without MPP^+ at 16 μM and with or without test substance. After 48 hours of intoxication (day 8 of culture), the cells were fixed with PFA 4%. Dopaminergic neurons were labeled by a monoclonal anti-tyrosine hydroxylase (TH) antibody (Sigma). This antibody labels the neurites and cell bodies of dopaminergic neurons. […] For each condition, 2×10 pictures per well were taken using InCell Analyzer™ 1000 (Amersham Biosciences) with 10× magnification. All the images were taken in the same conditions.
Analysis of the neurite length and number of neurons labeled with anti tyrosine hydroxylase (TH) antibodies with or without MPP+ intoxication was carried out using InCell Analyzer™ 1000 3.2.Workstation software. Dopaminergic neurons and total length neurites were counted on the 10 pictures (12 analyses by culture condition).

For series [2], the target named is T1, RET via GFRα (UniProt P07949+Q62997).
T1 construct: Full-length flag-tagged rat Gfrα1 cDNA; FLAG; expressed in transfected cells; host or cells: αLUC cells: MG87RET murine fibroblasts stably transfected with GFRα1 plasmid, Gal4-Luc and Gal4-Elk
In words: RET phosphorylation assay by immunoprecipitation and Western blotting (FIG. 4). It is filed as cell-based. The following applies: FIG. 4 lanes; active / inactive. How it is done: αLUC and NOα cells plated on 35 mm tissue culture dishes were starved for 4 hours in serum-free DMEM and stimulated with 500 ng/ml of PSPN or 100 ng/ml of GDNF (positive control) for 15 min. […] The membranes were washed 3 times for 5 min in TBS-T and incubated in the 1:3000 solution of secondary anti-mouse antibodies conjugated with HRP (DAKO) diluted in TBS-T containing 3% nonfat dry milk for 45 min at room temperature. Membranes were washed with TBS-T for 5×10 min. Stained bands were visualized with ECL reagent (Pierce) using LAS3000 imaging program. […] We used secondary anti-goat antibodies conjugated with HRP (1:1500, DAKO) to detect C-20.

Series [3] concerns 6-OHDA lesioned rats. As to the kind of experiment: Amphetamine induced rotation asymmetry in 6-OHDA rat model of Parkinson's disease (FIG. 7). It counts as in vivo. The text has this:
The objective of this study is to investigate the effect of intrastriatally (i.s.) administered small molecule GDNF mimetics (compounds 13, 16, 319H6 and 292651, structures shown in the description of the Figures, above) in a rat model 6-OHDA of Parkinson's disease. In the sub-acute lesion model used in this study, the lesion of the substantia nigra (SNc) that slowly progresses over weeks is created by injection of 6-OHDA into the proximity of the dopaminergic terminals in the striatum (Kirik-D 1998, Exp. Neurol. 152:259-277). In this model, a portion of the nigrostriatal projection is left intact, which can serve as a substrate for regeneration and functional recovery in response to growth promoting and neuroprotective agents.
(§1) GDNF mimetics compounds, GDNF or vehicle is administered to the striatum at 3 weeks after the exposure to the neurotoxin 6-OHDA. The selective damage to dopaminergic neurons in the SNc, as well as striatal levels of dopamine and its metabolites are evaluated 12 weeks after the injection of 6-OHDA with tyrosine hydroxylase (TH) immunohistochemistry and HPLC, respectively. In addition, the behavioral impairment of rats is evaluated by forelimb asymmetry test (cylinder test), amphetamine induced rotation asymmetry test and Y-maze test for stereotypic spontaneous rotation deficits.
Animals: All animal experiments are carried out according to the National Institute of Health (NIH) guidelines for the care and use of laboratory animals, and approved by the State Provincial Office of Southern Finland. Altogether 108 male Wistar rats, purchased from Charles River, Germany and weighing 220-275 g are used for the experiment. Animals are housed at a standard temperature (22±1° C.) and in a light-controlled environment (lights on from 7 am to 8 pm) with ad libitum access to food and water. Animals are grouped as follows:
In order to generate partial retrograde degeneration into the SNc, 6-OHDA lesioning is carried out according to Sauer and Oertel with modifications (Sauer and Oertel, 1994). Male Wistar rats are anesthetized with 5% isoflurane (in 70% N2O and 30% O2; flow 300 ml/min) and placed in a stereotactic frame. During the operation concentration of anesthetic is reduced to 1-1.5%. The rectal temperature is maintained at 37.0±1.0° C. with a homeothermic blanket system. The right brain hemisphere is exposed through a small craniectomy to the skull. The dura mater is carefully removed with fine forceps and a stereotaxic injection of 6-OHDA (4 μg/μl) is made into the right striatum. A total of 7 μl of 6-OHDA is infused at a speed of 0.5 μl/min and is equally distributed between 4 sites at the following coordinates: AP+1.0, ML+2.8, DV−6.0, −5.5, −5.0 and −4.4 mm. The cannula is left in place for another 5 min before being withdrawn. The hole in the skull is subsequently filled with repair material and the skin is closed and disinfected. The rats are allowed to recover from anesthesia and are carefully monitored for possible post surgical complications. The animals are returned to the home cages with ad libitum access to food and water.
On day 21, rats are re-anesthetized with 5% isoflurane (in 70% N2O and 30% O2; flow 300 ml/min) and placed in a stereotactic frame. During the operation concentration of anesthetic is reduced to 1-1.5%. The rectal temperature is maintained at 37.0±1.0° C. with a homeothermic blanket system. The right brain hemisphere is exposed through a small craniectomy to the skull. A stereotaxic injection of the test compound, GDNF or vehicle is made into the right striatum. Each dosing solution is infused at a speed of 1 μl/min and is equally distributed between 4 sites at the following coordinates: AP+1.0, ML+2.8, DV−6.0, −5.5, −5.0 and −4.4 mm. The cannula is left in place for another 5 min before being withdrawn. The hole in the skull is subsequently filled with repair material and the skin is closed and disinfected. […]

Series [4] deals with 6-OHDA-treated rats. In words: Side effects / toxic effects after intrastriatal injection in 6-OHDA-treated rats. It counts as in vivo. The settings on record: injected intrastriatally. How it is done:
as §1
On day 21, rats are re-anesthetized with 5% isoflurane (in 70% N2O and 30% O2; flow 300 ml/min) and placed in a stereotactic frame. During the operation concentration of anesthetic is reduced to 1-1.5%. The rectal temperature is maintained at 37.0±1.0° C. with a homeothermic blanket system. The right brain hemisphere is exposed through a small craniectomy to the skull. A stereotaxic injection of the test compound, GDNF or vehicle is made into the right striatum. Each dosing solution is infused at a speed of 1 μl/min and is equally distributed between 4 sites at the following coordinates: AP+1.0, ML+2.8, DV−6.0, −5.5, −5.0 and −4.4 mm. The cannula is left in place for another 5 min before being withdrawn. The hole in the skull is subsequently filled with repair material and the skin is closed and disinfected. The rats are allowed to recover from anesthesia and are carefully monitored for possible post surgical complications. The animals are returned to the home cages with ad libitum access to food and water.
Animals are monitored daily by laboratory personnel. […] Definitions of acceptable endpoints include: no spontaneous movements and inability to drink or eat in 24-h observation period, massive bleeding, spontaneous inflammation, missing anatomy, swelling or tumors larger than 20 mm, and inability to right itself in 30 sec period.

T1 sequence (Q62997 25-430 limits assumed): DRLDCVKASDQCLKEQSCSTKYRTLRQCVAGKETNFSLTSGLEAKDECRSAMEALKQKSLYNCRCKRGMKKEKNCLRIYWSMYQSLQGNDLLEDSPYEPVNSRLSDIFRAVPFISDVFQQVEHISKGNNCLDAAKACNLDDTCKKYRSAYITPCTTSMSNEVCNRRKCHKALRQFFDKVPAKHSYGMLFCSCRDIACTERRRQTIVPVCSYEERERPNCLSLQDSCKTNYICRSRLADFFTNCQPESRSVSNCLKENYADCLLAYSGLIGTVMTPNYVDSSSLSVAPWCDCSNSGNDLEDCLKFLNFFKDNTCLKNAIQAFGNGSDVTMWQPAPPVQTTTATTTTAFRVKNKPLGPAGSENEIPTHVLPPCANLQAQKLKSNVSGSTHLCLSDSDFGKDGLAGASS
T1 sequence (P07949 29-1114): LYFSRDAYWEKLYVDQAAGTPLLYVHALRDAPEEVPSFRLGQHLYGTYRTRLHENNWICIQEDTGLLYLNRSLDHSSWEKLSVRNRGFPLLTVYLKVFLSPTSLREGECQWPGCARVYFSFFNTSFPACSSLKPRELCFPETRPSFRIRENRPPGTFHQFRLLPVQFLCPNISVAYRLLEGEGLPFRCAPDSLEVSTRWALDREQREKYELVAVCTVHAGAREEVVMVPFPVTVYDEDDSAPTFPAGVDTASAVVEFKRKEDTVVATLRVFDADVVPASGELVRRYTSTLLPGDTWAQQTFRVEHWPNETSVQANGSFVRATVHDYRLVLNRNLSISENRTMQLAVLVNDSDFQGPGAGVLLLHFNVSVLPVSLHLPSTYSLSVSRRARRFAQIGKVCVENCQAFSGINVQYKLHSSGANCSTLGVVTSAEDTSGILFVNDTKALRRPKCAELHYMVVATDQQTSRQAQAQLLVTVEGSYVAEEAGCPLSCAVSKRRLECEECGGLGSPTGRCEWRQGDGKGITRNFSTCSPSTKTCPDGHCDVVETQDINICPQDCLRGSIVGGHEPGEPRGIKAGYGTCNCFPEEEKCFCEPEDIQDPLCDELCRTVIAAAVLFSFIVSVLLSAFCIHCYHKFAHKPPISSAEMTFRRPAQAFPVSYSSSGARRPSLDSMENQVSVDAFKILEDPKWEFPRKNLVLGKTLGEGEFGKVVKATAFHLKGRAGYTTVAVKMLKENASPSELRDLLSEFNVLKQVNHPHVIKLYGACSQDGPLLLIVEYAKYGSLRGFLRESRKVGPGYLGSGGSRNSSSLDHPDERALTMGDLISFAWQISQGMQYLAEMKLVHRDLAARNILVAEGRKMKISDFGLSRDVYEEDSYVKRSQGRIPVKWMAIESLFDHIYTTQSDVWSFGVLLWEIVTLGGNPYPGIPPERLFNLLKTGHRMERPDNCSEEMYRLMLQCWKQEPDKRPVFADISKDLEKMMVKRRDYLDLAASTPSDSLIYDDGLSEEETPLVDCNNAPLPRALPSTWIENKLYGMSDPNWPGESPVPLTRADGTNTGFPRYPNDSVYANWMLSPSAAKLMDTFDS

For the molecule `CCN(CC)S(=O)(=O)c1ccc(OC)c(N2CCN(C(=O)c3ccc(F)cc3C(F)(F)F)CC2)c1` [319H6], the “% Cytoprotection vs controls” value in series [1] (0.1 μM) stood at 9%; in series [1] (1 μM) it was 33%; in series [1] (10 μM) it was 36%. In addition, the results for the “% TH+ Neurons” value in series [1] (0.1 μM), in series [1] (1 μM) and in series [1] (10 μM) were 59%, 70% and 71%, respectively.
For the molecule `CCN(CC)CCCC(C)Nc1ccnc2cc(Cl)ccc12` (stereo not drawn) [chloroquine], the “RET activation (phosphotyrosine Western blot of immunoprecipitated RET)” value (from here on “RET activation”) in series [2] was “inactive”.
In the case of `CCN(CC)CCCCCCNc1ccnc2cc(Cl)ccc12` [compound 108], the “RET activation” value in series [2] is “inactive”.
On the same count and under the same terms, the value for `OCCNCCNc1c2ccccc2nc2cc(Cl)ccc12` [compound 13005] was “inactive”.
The same measure, in the same setting: the value for `CC(CCCN(C)Cc1ccccc1)Nc1ccnc2cc(Cl)ccc12` (stereo not drawn) [compound 143511] was “active”.
For `CCN(CC)CCCC(C)Nc1cc(/C=C/c2ccc(Cl)cc2)nc2ccc(N(C)C)cc12` (stereo not drawn) [compound 219902], the “RET activation” value in series [2] is “active”.
In the case of `CCN(CC)CCCC(C)Nc1cc(/C=C/c2ccc(Cl)cc2)nc2cc(N(C)C)ccc12` (stereo not drawn) [compound 292651], in series [2], the “RET activation” value is given as “active”. For the same molecule, the amphetamine-induced ipsilateral rotation entry in series [3] (1 ug intrastriatal, 3 weeks after 6-OHDA, measured 6 weeks after 6-OHDA) is “reduced amphetamine-induced ipsilateral rotation”. In series [3] (injected into striatum 3 weeks after 6-OHDA, dose not stated), the “amphetamine-induced ipsilateral rotation of lesioned rats” value was “significantly reduce”. Besides, the “toxic effects in behavioral assays” value in series [4] was “did not cause toxic effects”.
Consider `Clc1ccc2c(NCCCCCCNc3ccnc4cc(Cl)ccc34)ccnc2c1` [compound 349051], for which the “RET activation” value in series [2] is “inactive”.

B1: BDNF: native brain-derived neurotrophic factor, comparator in the neuron survival assay (protein, UniProt P23560 19-247, looked up)
Neurotrophic factor BDNF …: APMKEANIRGQGGLAYPGVRTHGTLESVNGPKAGSRGLTSLADTFEHVIEELLDEDQKVRPNEENNKDADLYTSRVMLSSQVPLEPPLLFLLEEYKNYLDAANMSMRVRRHSDPARRGELSVCDSISEWVTAADKKTAVDMSGGTVTVLEKVPVSKGQLKQYFYETKCNPMGYTKEGCRGIDKRHWNSQCRTTQSYVRALTMDSKKRIGWRFIRIDTSCVCTLTIKRGR
On to B1, for which, in series [1] (10 ng/mL), the “% Cytoprotection vs controls” value was determined as 49% and the “% TH+ Neurons” value worked out at 77%.
